Measurements taken from patent US10300104B2, “Multi-arm linker for treating rejection reaction in transplantation” (Immunwork Inc., priority 2015, dated 2019).

What was measured:
[1] = tested on: mTOR/p70S6K signaling pathway; assay: Western blot analysis of mTOR/p70S6K signaling pathway in Jurkat T cells; assay type: cell-based, human; details: 10 ng/ml IL2, 100 nM, 24 hours, FIG. 20A
Procedure: To examine the biological activities of these compounds, western blot analysis of mTOR/p70S6K signaling pathway and T-cell proliferation assay were performed with human Jurkat T cells. T-cell viability and proliferation were assessed using alamarBlue® cell viability reagent (Invitrogen).
For the western blot analysis of mTOR/p70S6K signaling pathway, briefly, Jurkat T cell were seeded into 6-cm cell culture dish in RPM11640 medium containing 10% fetal bovine serum.
Insoluble material was collected by centrifugation at 14,000×g for 20 minutes at 4° C. The cell lysate samples were separated on 10% SDS-PAGE gels and transferred to a PVDF membrane (Millipore). The membrane blots were blocked in PBS containing 5% BSA for 1 hour at room temperature, and incubated with primary antibodies, anti-phospho-p70S6K antibody (Cell Signaling Technology, Danvers, USA) and anti-p70S6K antibody (Cell Signaling Technology), overnight at 4° C. […] Then the membranes were washed three times with TBST, and immunoreacted bands were detected with ECL™ western blotting detection reagents (Millipore) and exposed on Fujifilm (Tokyo, Japan). Relative quantification of ECL signals on X-ray films were analyzed by using Image J (NIH, Bethesda, Md., USA).

PD1-IgG1.Fc = biological target: T1, PD1-IgG1.Fc (Homo sapiens, UniProt Q15116); assay: ELISA of recombinant PD-L1 binding to PD1-IgG1.Fc; details: plate coated with PD-L1 50 μg/ml; PD1-IgG1.Fc 50 μg/ml; FIG. 14D
T1 construct: made in house; host or cells: Expi293F
T1 sequence (Q15116 with tags, fused parts or gaps): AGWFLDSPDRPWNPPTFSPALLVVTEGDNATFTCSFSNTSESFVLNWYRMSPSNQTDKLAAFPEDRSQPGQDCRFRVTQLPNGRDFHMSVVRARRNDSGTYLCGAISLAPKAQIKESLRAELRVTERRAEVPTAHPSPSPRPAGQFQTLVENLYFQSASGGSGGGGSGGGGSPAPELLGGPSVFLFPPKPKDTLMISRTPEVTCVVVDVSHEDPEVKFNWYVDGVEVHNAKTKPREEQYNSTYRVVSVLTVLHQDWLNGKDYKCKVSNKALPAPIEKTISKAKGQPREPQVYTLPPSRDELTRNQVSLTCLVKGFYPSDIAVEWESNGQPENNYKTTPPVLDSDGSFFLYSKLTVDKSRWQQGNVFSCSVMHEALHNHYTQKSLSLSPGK
Procedure: Binding activity of recombinant PD-L1 protein was assayed with ELISA using a 96-well plate coated with recombinant PD-L1 protein in 50 μg/ml concentration, 100 μl per well. After the excess PD-L1 was washed off and the solid phase blocked, 100 μl per well of PD1-IgG1.Fc at 50 μg/ml was added. The bound PD1-IgG1.Fc was determined by HRP-conjugated goat anti-human IgG.Fc. 50 μl of TMB substrate was added for color development. The reaction was stopped by 50 μl of 1M HCl. Absorbance at 450 nm was measured with a plate reader. Each bar represents the mean OD450 value of duplicate samples.

scFv specific for CTLA-4 = assay: Western blot of recombinant CTLA-4 with scFv specific for CTLA-4; assay type: binding; details: scFv specific for CTLA-4 1 μg/ml; FIG. 14C
Procedure: Recombinant CTLA-4 protein was analyzed and detected using western blotting. Briefly, 50 μl of the purified CTLA-4 protein was electrophoresed on the 12% SDS-PAGE gel (lane 2) and electroblotted over to a PDVF membrane. The protein (CTLA-4)-IgG1Fc-(scFv α HLA-A1) was used as a positive control (lane 1). After blocking with 5% BSA in TBST at room temperature for 1 hour, the diluted scFv specific for CTLA-4 (1 μg/ml) was added and incubated with the membrane overnight at 4° C. with gentle shaking. The membrane was rinsed and washed 3 times with TBST. The diluted HRP-conjugated protein L (1:5000) was added and incubated with the membrane at room temperature for 1 hour, and the rinse and wash cycle was repeated with TBST for 3 times. The membrane was then incubated with HRP substrate solution for 20 minutes before being exposed to the photographic film.

human HLA-A2 = biological target: T2, human HLA-A2 (Homo sapiens, UniProt P04439); assay: Single colony ELISA of phage-displayed scFvs specific for human HLA-A2; assay type: binding; details: HLA-A2 0.5 μg/100 μl per well; FIG. 16B
T2 construct: made in house; host or cells: Expi293F
Procedure: E. coli strain ER2738 infected with single-clonal phages each harboring a selected scFv gene in its phagemid was grown in the mid-log phase in 2YT broth (16 g/l tryptone, 10 g/l yeast extract, 5 g/l NaCl, pH 7.0) with 100 μg/ml ampicillin in deep well at 37° C. with shaking. After the broth reached an OD600 of 1.0, IPTG was added to a final concentration of 1 μg/ml. The plates were incubated at 37° C. overnight under rigorously shaking. Thereafter, the plates were centrifuged at 4,000 g for 15 minutes at 4° C.
For soluble scFv binding test, ELISA was carried out. Briefly, 96-well Maxisorp 96-well plate (Nunc) was coated with human HLA-A2 (0.5 μg/100 μl PBS per well) or two negative control antigens, human heat shock protein 70 (Hsp 70) and RSV-IgG1.Fc fusion protein (prepared by our laboratory), for 18 hours with shaking at 4° C. After being treated with 300 μl of blocking buffer for 1 hour, 100 μl of secreted scFv in the supernatant was mixed with 100 μl of blocking buffer and then added to the coated plate for another 1 hour. Goat anti-E-tag antibody (conjugated with HRP, 1:4000, Cat. No. AB19400, Abcam) was added to the plate for 1 hour. TMB substrate (50 μl per well) was added to the wells and the absorbance at 450 nm was measured after reactions were stopped by adding 1N HCl (50 μl per well).

recombinant HLA-A1 = biological target: T3, recombinant HLA-A1 (Homo sapiens, UniProt P04439); assay: ELISA of tetrazine-conjugated scFv specific for human HLA-A1; assay type: binding; details: FIG. 17B
T3 construct: made in house; host or cells: Expi293F
From the text: The purity of tetrazine-conjugated scFv specific for human HLA-A1 was identified through Coomassie blue staining of 12% SDS-PAGE. FIGS. 17A and 17B show, respectively, the mass spectrometric and ELISA analysis of tetrazine-conjugated scFv specific for human HLA-A1, in which unmodified scFv specific for human HLA-A1 was used as a positive control.

| Molecule | mTOR/p70S6K signally pathway in the treated T cells, compared with unmodified sirolimus [1] | phosphorylated level of p70S6K [1] | also measured |
| --- | --- | --- | --- |
| CO[C@H]1C[C@@H]2CC[C@@H](C)[C@@](O)(O2)C(=O)C(=O)N2CCCC[C@H]2C(=O)O[C@H]([C@H](C)C[C@@H]2CC[C@@H](OC(=O)CNC(=O)CN)[C@H](OC)C2)CC(=O)[C@H](C)/C=C(\C)[C@@H](O)[C@@H](OC)C(=O)[C@H](C)C[C@H](C)/C=C/C=C/C=C/1C [sirolimus-diGly, sirolimus di-glycine] | blocked | decreased |  |
| recombinant human PD-L1: recombinant human PD-L1 (SEQ ID NO: 31) with GGGGSGGGGS linker and terminal cysteine |  |  | binding to recombinant PD1-IgG1.Fc (ELISA) (PD1-IgG1.Fc): specifically bound |
| recombinant human CTLA-4: recombinant human CTLA-4 (SEQ ID NO: 30) with GGGGSGGGGS linker and terminal cysteine |  |  | binding by the scFv specific for CTLA-4 (western blot) (scFv specific for CTLA-4): specifically bound |
| CO[C@H]1C[C@@H]2CC[C@@H](C)[C@@](O)(O2)C(=O)C(=O)N2CCCC[C@H]2C(=O)O[C@H]([C@H](C)C[C@@H]2CC[C@@H](OC(=O)CN)[C@H](OC)C2)CC(=O)[C@H](C)/C=C(\C)[C@@H](O)[C@@H](OC)C(=O)[C@H](C)C[C@H](C)/C=C/C=C/C=C/1C [sirolimus-Gly, Sirolimus monoglycine] | blocked | decreased |  |
| 3E10: phage-displayed human scFv clone specific for human HLA-A2, SEQ ID NO: 34 (protein, phage-displayed scFv specific for HLA-A2, 3E10) scFv: DIQMTQSPSSLSASVGDRVTITCRASQDVFFFVAWYQQKPGKAPKLLIYGPPGLYSGVPSRFSGSGSGTDFTLTISSLQPEDFATYYCQQYFSFPITFGQGTKVEIKRGGGGSIEGRSGGGGSEVQLVESGGGLVQPGGSLRLSCAASGFTISNGGIHWVRQAPGKGLEWVASIWPSGGYTSYADSVKGRFTISADTSKNTAYLQMNSLRAEDTAVYYCARFGVNYHGIMDYWGQGTLVTVSS |  |  | OD450 of binding to human HLA-A2 (human HLA-A2): 1.3 |
| tetrazine-conjugated scFv specific for human HLA-A1: scFv specific for human HLA-A1 conjugated at C-terminal cysteine with Mal-PEG4-tetrazine (protein) scFv: DIQMTQSPSTLSASVGDRVTITCRASQSISNWLAWYQQKPGKAPNLLIYKASSLESGVPSRFSGSGSGTEFTLTISSLQPDDFATYYCQQYHDYSVTFGAGTKVEIKRGGGGSGGGGSGGGGSEVQLLESGGGLVQPGGSQRLSCVASGVPFSNYAMNWVRQAPGKGLEWVSSISGGGDRTFYADSVKGRFTISRDNSKNTLYLQMNSLGAGDTAVYYCAKTYYDFWSGYSRHLNSWGQGSLVTVSSGGGGSGGGGSC |  |  | binding to recombinant HLA-A1 (ELISA) (recombinant HLA-A1): bound |
